Source: BindingDB's records for PubMed 32707525 (n/a, 2020)
Square brackets hold non-standard residues; d marks the D form. Peptide text beside a SMILES is read from it. Mpa = O=C(O)CCS

target: CDK2/Cyclin A2 (Homo sapiens, UniProt P20248+P24941); assay: Inhibition of CDK2/cyclin A2 (unknown origin) using histone as substrate in presence of ATP by luminescent ADP detection assay

Row | Structure (SMILES) | IC50 [nM]
1 | CCCCCNC(=N)N/N=C/c1c[nH]c2ccc(O)cc12 | < 20
2 | CCCCC/N=C(/N)N/N=C/c1c[nH]c2ccc(OCC=C(C)C)cc12 | < 20
3 | CCCCC/N=C(/N)N/N=C/c1c[nH]c2ccc(OC(C)C)cc12 | < 20

Next, values leading:

Row | IC50 [nM] | Structure (SMILES)
4 | < 20 | CC(C)[C@H](NC(=O)[C@H](Cc1ccccc1)NC(=O)[C@@H](Cc1ccc(O)cc1)NC(=O)CC12CC3CC(CC(C3)C1)C2)C(=O)N[C@@H](CC(N)=O)C(=O)N[C@@H](CCCN=C(N)N)C(=O)N1CCC[C@@H]1C(=O)N[C@@H](CCCN=C(N)N)C(=O)N[C@@H](CCCN=C(N)N)C(N)=O
5 | < 20 | CCOc1ccc(C[C@@H](NC(=O)CC23CC4CC(CC(C4)C2)C3)C(=O)N[C@@H](Cc2ccccc2)C(=O)N[C@H](C(=O)N[C@@H](CC(N)=O)C(=O)N[C@@H](CCCCN)C(=O)N2CCC[C@@H]2C(=O)N[C@@H](CCCN=C(N)N)C(=O)N[C@@H](CCCN=C(N)N)C(N)=O)C(C)C)cc1

target: Cyclin-dependent kinase 2/cyclin E1 (Homo sapiens, UniProt P24864+P24941); assay: Inhibition of CDK2/cyclin E1 (unknown origin) incubated for 60 mins in presence of ATP by ADP-Glo luminescent Kinase Assay

Row | IC50 [nM] | Structure (SMILES)
6 | 0.216 | CC(C)C[C@H](NC(=O)[C@@H](NC(=O)c1ccccc1OCc1ccccc1)C(C)C)C(=O)N[C@@H](CO)C(=O)O
7 | 0.216 | CC(C)C[C@H](NC(=O)[C@@H](NC(=O)c1ccccc1O)C(C)C)C(=O)N[C@@H](CO)C(=O)O

target: CDK9/cyclin T1 (Homo sapiens, UniProt O60563+P50750); assay: Inhibition of CDK9/cyclin T1 (unknown origin) assessed as inhibition constant
Sequence (O60563 whole entry, looked up): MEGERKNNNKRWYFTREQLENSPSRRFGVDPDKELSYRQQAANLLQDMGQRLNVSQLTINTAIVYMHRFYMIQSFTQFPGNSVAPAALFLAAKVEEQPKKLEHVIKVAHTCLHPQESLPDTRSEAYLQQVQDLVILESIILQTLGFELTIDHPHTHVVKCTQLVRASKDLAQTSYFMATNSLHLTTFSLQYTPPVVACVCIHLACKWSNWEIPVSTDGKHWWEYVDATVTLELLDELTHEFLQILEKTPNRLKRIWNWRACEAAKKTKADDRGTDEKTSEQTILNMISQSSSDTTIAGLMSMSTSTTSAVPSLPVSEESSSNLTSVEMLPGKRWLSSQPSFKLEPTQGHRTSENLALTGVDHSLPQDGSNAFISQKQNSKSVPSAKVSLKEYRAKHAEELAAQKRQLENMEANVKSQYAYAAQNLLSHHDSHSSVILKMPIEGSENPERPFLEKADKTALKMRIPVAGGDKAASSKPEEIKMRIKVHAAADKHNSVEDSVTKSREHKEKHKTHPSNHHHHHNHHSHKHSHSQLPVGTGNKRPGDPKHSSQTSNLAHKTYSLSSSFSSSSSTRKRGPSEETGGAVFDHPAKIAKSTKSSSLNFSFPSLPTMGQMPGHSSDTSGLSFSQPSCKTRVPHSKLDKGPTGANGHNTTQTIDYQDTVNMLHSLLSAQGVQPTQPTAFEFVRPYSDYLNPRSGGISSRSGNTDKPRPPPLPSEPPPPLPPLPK
Sequence (P50750 whole entry, looked up): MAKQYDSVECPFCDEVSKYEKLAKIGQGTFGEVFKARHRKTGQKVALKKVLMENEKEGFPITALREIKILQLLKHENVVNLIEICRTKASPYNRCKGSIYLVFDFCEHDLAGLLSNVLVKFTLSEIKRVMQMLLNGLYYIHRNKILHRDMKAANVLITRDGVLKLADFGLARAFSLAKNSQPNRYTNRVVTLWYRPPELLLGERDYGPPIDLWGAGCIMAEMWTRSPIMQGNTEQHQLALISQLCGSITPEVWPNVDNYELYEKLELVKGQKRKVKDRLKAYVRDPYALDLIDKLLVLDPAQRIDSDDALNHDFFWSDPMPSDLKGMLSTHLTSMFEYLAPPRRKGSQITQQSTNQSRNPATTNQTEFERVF

Row | Ki [nM] | Structure (SMILES)
8 | 3.3 | CC(C)C[C@H](NC(=O)[C@@H](NC(=O)CCS)C(C)C)C(=O)N[C@@H](CO)C(=O)O ([Mpa]VLS-OH)
9 | 3.3 | CC(C)C[C@H](NC(=O)[C@@H](NC(=O)c1cccc(OCc2ccccc2)c1)C(C)C)C(=O)N[C@@H](CO)C(=O)O
10 | 3.3 | CC(C)C[C@H](NC(=O)[C@@H](NC(=O)c1ccc(OCc2ccccc2)cc1)C(C)C)C(=O)N[C@@H](CO)C(=O)O
